# Legend:
# [1] = molecular target: T1, Serine/threonine-protein kinase Sgk1 (Homo sapiens) (UniProt O00141); assay: Selectivity interaction (KinomeScan (DiscoverX)) EUB0001079a SGK1; conditions: at 1 µM
# T1 sequence (whole entry): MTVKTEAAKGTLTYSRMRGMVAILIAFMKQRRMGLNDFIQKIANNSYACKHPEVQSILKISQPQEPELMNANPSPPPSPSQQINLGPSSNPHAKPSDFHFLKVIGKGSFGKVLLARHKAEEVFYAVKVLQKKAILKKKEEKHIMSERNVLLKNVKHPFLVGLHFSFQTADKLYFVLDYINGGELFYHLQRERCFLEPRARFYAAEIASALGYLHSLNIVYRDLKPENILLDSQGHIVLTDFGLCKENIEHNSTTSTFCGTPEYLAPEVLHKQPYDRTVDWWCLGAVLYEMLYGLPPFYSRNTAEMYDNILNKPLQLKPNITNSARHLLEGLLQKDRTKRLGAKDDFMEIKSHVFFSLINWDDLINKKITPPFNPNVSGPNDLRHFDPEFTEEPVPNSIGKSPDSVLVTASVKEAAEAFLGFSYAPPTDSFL
# [2] = molecular target: Calcium/calmodulin-dependent protein kinase type 1 (Homo sapiens) (UniProt Q14012); assay: Selectivity interaction (ActivX KiNativ screen (kinase selectivity in THP-1 cell lysates)) EUB0000639a CAMK1; assay type: subcellular; conditions: lysate, at 0.04 µM
# [3] = molecular target: T2, Inhibitor of nuclear factor kappa-B kinase subunit epsilon (Homo sapiens) (UniProt Q14164); assay: Selectivity interaction (ActivX KiNativ screen (kinase selectivity in THP-1 cell lysates)) EUB0000639a IKBKE; assay type: subcellular; conditions: lysate, at 0.01 µM
# T2 sequence (whole entry): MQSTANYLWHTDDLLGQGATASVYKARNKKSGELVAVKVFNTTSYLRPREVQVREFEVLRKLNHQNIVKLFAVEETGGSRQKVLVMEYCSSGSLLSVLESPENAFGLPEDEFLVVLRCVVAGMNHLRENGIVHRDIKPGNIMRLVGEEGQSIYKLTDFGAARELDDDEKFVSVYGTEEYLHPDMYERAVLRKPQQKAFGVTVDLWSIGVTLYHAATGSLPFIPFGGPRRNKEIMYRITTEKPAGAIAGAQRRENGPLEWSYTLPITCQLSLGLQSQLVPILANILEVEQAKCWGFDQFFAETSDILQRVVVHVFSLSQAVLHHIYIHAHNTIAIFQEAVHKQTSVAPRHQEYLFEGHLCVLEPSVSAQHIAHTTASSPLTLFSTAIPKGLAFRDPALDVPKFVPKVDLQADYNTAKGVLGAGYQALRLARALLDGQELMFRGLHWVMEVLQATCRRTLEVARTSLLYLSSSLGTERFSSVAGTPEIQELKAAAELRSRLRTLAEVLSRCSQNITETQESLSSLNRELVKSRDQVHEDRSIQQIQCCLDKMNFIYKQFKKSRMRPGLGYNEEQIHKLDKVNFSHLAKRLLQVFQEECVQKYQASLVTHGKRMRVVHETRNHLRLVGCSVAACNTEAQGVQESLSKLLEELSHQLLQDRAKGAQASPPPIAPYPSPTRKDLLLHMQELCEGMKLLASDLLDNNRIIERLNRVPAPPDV
# [4] = molecular target: Serine/threonine-protein kinase PAK 4 (Homo sapiens, UniProt O96013); assay: Selectivity interaction (KinomeScan (DiscoverX)) EUB0000092b PAK4; conditions: at 10 µM
# [5] = molecular target: Dual specificity protein kinase CLK3 (Homo sapiens, UniProt P49761); assay: Selectivity interaction (SelectScreen profiling (Invitrogen)) EUB0000607a CLK3; conditions: at 2 µM
# [6] = molecular target: T3, Eukaryotic elongation factor 2 kinase (Homo sapiens) (UniProt O00418); assay: Selectivity interaction (SelectScreen profiling (Invitrogen)) EUB0000607a EEF2K; conditions: at 2 µM
# T3 sequence (whole entry): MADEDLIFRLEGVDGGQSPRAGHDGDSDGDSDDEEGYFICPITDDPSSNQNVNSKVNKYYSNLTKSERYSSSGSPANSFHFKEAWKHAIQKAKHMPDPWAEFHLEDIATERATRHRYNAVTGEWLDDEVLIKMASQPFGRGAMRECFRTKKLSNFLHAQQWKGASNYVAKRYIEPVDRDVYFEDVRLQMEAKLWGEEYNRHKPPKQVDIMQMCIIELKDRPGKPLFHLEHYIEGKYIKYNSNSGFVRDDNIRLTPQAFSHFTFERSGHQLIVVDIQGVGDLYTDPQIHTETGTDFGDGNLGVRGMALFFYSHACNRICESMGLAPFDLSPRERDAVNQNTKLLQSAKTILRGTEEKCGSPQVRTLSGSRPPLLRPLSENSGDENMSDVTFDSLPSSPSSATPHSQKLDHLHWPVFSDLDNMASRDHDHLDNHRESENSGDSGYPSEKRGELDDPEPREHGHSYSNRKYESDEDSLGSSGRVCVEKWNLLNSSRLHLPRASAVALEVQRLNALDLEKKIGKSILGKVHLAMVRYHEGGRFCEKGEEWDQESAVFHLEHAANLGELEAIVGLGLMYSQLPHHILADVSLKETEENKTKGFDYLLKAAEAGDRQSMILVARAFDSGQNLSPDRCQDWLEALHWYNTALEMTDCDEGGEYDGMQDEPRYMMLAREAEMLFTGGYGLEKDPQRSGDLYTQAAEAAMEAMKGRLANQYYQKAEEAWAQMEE
# [7] = molecular target: T4, cGMP-dependent protein kinase 2 (Homo sapiens) (UniProt Q13237); assay: Selectivity interaction (SelectScreen profiling (Invitrogen)) EUB0000607a PRKG2; conditions: at 2 µM
# T4 sequence (whole entry): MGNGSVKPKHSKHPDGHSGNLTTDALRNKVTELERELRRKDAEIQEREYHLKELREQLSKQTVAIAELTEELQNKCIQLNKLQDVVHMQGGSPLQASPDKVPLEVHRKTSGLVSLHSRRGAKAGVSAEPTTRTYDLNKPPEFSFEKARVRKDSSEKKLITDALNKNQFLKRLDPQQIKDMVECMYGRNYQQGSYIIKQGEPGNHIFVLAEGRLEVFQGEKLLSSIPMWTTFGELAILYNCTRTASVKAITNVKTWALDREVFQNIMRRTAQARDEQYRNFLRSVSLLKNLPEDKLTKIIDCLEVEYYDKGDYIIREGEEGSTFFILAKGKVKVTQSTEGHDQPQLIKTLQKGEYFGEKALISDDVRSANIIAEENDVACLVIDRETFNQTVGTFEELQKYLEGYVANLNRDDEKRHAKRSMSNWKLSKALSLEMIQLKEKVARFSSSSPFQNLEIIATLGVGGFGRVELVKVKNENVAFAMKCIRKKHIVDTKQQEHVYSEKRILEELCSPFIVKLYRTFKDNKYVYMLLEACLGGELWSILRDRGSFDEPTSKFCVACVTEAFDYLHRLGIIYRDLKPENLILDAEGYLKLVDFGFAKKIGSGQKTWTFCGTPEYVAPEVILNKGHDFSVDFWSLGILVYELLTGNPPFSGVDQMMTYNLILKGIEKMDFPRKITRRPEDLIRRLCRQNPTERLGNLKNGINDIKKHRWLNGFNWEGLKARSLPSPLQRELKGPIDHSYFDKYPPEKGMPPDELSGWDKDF
# Calcium/calmodulin-dependent protein kinase type 1 (Homo sapiens), sequence (Q14012 whole entry, looked up): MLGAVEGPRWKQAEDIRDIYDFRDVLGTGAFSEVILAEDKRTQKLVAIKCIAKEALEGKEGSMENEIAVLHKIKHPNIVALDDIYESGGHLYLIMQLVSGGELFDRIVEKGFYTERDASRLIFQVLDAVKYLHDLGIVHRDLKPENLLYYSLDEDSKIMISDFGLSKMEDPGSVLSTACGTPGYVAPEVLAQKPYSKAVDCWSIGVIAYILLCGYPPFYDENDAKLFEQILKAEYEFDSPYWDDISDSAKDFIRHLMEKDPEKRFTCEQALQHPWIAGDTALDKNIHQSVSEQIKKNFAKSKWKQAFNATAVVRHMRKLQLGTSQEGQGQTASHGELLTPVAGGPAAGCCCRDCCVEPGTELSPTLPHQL
# Dual specificity protein kinase CLK3, sequence (P49761 whole entry, looked up): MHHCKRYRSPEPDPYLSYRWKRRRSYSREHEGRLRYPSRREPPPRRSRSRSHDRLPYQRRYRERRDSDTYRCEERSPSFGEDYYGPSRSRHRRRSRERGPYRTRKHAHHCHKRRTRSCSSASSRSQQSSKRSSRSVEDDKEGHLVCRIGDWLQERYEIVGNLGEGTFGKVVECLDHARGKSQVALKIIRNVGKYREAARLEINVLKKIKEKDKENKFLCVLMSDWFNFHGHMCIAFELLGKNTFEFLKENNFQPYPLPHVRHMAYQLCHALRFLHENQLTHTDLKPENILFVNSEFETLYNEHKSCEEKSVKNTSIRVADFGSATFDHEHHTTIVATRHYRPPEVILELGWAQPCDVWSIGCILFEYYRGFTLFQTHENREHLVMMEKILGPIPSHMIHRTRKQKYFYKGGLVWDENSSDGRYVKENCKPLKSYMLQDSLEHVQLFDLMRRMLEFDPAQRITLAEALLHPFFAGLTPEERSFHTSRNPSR
# Serine/threonine-protein kinase PAK 4, sequence (O96013 whole entry, looked up): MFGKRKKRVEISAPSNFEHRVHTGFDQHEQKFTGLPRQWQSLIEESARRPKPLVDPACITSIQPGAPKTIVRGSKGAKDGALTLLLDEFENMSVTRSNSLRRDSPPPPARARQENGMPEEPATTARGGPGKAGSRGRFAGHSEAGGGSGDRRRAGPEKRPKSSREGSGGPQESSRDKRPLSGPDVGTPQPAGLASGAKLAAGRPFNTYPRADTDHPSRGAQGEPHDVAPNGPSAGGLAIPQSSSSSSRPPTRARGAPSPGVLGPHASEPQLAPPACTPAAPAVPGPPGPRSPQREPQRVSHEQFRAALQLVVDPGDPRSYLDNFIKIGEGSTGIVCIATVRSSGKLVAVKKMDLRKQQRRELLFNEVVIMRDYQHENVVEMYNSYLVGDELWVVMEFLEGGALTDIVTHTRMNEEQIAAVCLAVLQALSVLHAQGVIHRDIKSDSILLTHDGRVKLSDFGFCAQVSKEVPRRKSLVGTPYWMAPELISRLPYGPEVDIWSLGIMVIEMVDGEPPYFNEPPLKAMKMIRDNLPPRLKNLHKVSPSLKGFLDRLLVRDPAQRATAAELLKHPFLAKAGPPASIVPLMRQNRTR
structure (smiles),measurement,setting,value
Nc1cnc(N2CCc3cc(S(=O)(=O)Nc4c(F)cc(Cl)cc4F)cc(N4CCCC4=O)c32)nc1 [TP-020n],% of control,[1],100%
CC[C@@H]1[C@H](F)C(=O)N[C@@H]1COc1nccc2cc(C(N)=O)c(OC)cc12 [ZIMLOVISERTIB],% of inhibition,[2],-6.2%
same,% of inhibition,[3],-51.9%
CCC(=O)N1CCN(c2ccc(-n3c(=O)ccc4cnc5ccc(-c6cnc7ccccc7c6)cc5c43)cc2C(F)(F)F)CC1,% of control,[4],100%
CNC(=O)Nc1ccc(-c2nc(N3CC4CCC(C3)O4)c3cnn(C4CCC5(CC4)OCCO5)c3n2)cc1,% of inhibition,[5],2%
same,% of inhibition,[6],1%
same,% of inhibition,[7],9%
